Source: patent US20130065931A1, “METHODS FOR REDUCING WIREWORM DAMAGE TO CROPS” (priority 2011, published 2013)

Test system: wireworm
Test: Efficacy of chemical treatments on wireworm in potatoes grown in Washington State
Format: in vivo
Settings: result in words; values only in the figure
Excerpt: Experimental procedure for determining the efficacy of various chemical treatments on wire-worm in potatoes grown in Washington State, United States. Potato seed Solarium tuberosum L., ‘Russet Burbank’ was used in this experiment. Seeds were planted at a depth of 8 inches with spacing within the row at 10 inches and between rows at 34 inches. The experimental site was a 12 ft. by 20 ft. plot containing four experimental replications. [table] [table] [table]

In the case of CCOC(=O)OC1=C(c2cc(C)ccc2C)C(=O)N[C@]12CC[C@@H](OC)CC2 [spirotetramat], the “percent reduction in wireworm infestation of potatoes (FIG. 3)” value is reported as “confirm the efficacy”.
